Reference: paper PMC4664966, “Discovery and characterization of novel inhibitors of the sodium-coupled citrate transporter (NaCT or SLC13A5)” (Scientific Reports, 2015)

Legend:
HEK-293-derived cells = assay: Cell viability, CellTiter-glo, HEK-293-derived cells; set-up: species or system human; conditions: HEK-293-derived cell-based assay conditions
Method: For cell viability, cells are incubated with compound for 90 minutes at 37 °C. Following this incubation, 25 μL Cell Titer-Glo (Promega) was added to the plates which were then analyzed on the Envision (luminescence).

[1] = Intra-/extracellular unbound concentration ratio (Kpuu) in HEKNaCT cells; type: in vitro ADME; conditions: human, ratio of free intracellular and media concentration after 1 h incubation at 1 μM, geometric mean of 3 replicates ± SD
Method: (§1) kpuu values were determined by measuring total cell and media concentrations corrected for their respective fraction unbound. Detailed methods to determine intra- and extracellular concentrations of compound in the HEKNaCT cells and human hepatocytes will be the subject of a separate manuscript that is under preparation. […]
(§2) Intra- and extracellular concentrations of compound in cellular assays. kpuu values were determined by measuring total cell and media concentrations corrected for their respective […]
(§3) fraction unbound. […]
(§4) The solution was heated to reflux until the total volume was reduced to ~25 mL.
(§5) Hexane (25 mL) was added and the mixture was brought back to reflux than allowed to slowly cool to room temperature. After standing at room temperature for 16 h, the resulting suspension was filtered and dried under high vacuum to yield (S)-2-(4-(tert-butyl)phenethyl)-2-hydroxysuccinic acid (3) as a white solid. The filtrate was allowed to stand at room temperature for 4 days. The solvent evaporated to ~15 mL and large, colorless crystals formed.
(§6) X-ray analysis. Data collection was performed on a Bruker APEX diffractometer at room temperature. Data collection consisted of 3 omega scans and low angle and three at high angle; each with 0.5 step. In addition, 2 phi scans were collected to improve the quality of the […]

[2] = Intra-/extracellular unbound concentration ratio (Kpuu) in human hepatocytes; type: in vitro ADME; conditions: cryopreserved hepatocytes, ratio of free intracellular and media concentration after 1 h incubation at 1 μM, geometric mean of 3 replicates ± SD
Method: as §1, §2, §3, §4, §5, §6

human hepatocytes = assay: Incorporation of [14C]-citrate into triglycerides by human hepatocytes; type: cell-based; conditions: radiolabeled citrate for 24 hours
Method: Incorporation of [^14C]-citrate into triglycerides by human hepatocytes was measured using the same procedure as above except cells were incubated with the radioactive citrate for 24 hours. Subsequently, the media was aspirated and 100 μL of isopropyl alcohol:THF (9:1) was added. The plate was shaken for 15 minutes, centrifuged at 3000 revolutions per minute for 5 minutes, and 50 μL of supernatant from each well was applied per TLC lane (Whatman LK6D Silica Gel Plates). Radiolabeled lipids were resolved using a 2-solvent system: Solvent 1 contained a 100:100:100:40:36 mixture of ethyl acetate:isopropyl alcohol:CHCl3:MeOH:0.25% KCl and Solvent 2 a 70:27:3 hexane:diethyl ether:acetic acid mixture. The TLC plate was dried under nitrogen for 30 minutes and [^14C]-standards added to a vacant lane. Bands were visualized and quantitated using a Molecular Dynamics’ Storm 860 PhosphorImager system following 18–36 hours exposure to a Phosphorimager screen.

HEKNaCT cells [3] = assay: OCR and ECAR measurements in HEKNaCT cells incubated with citrate (Seahorse); type: cell-based, human; conditions: 30 μM compound
Method: HEKNaCT cells were plated at 12,000 cells/well onto a poly-d-lysine coated XF96 plate (Sigma, Seahorse Biosciences). Cells were plated in culture media containing HG DMEM, 10% FBS, 2 mM glutamine, 1 mM pyruvate, 0.5 mg/mL Geneticin, and 1% penicillin/streptomycin (Life Technologies) and incubated overnight at 37 °C. The following day, the media was changed to Seahorse Biosciences assay medium (Seahorse Biosciences) supplemented with 10 mM glucose and 2 mM pyruvate (Sigma). The plate was pre-incubated for 1 hour in a 37 °C air incubator. […]

NaDC1 (SLC13A2) = biological target: T1, NaDC1 (SLC13A2) (Homo sapiens, UniProt Q13183); assay: Inhibition of citrate or succinate uptake in HEKNaDC1 cells; type: cell-based; conditions: compound 4: mean of 2 replicates
T1 construct: host or cells: HEK-293, transient (Fugene HD)
T1 sequence (Q13183 1-592): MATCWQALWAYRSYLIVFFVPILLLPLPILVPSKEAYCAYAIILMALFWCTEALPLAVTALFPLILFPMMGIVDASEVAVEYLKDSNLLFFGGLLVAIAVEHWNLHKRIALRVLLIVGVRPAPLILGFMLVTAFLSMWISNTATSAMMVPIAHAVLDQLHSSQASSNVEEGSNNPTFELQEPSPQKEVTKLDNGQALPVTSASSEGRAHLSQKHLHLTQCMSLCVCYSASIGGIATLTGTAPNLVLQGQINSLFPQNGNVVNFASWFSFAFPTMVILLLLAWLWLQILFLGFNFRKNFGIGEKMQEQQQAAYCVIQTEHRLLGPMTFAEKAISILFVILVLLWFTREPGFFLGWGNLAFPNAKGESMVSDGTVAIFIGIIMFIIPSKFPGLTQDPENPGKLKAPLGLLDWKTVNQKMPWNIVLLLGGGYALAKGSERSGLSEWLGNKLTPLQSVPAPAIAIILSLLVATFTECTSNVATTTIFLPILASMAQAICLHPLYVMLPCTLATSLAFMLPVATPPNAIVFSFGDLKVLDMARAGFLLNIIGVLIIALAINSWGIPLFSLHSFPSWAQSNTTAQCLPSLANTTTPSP
Excerpt: (§7) Protocols to generate the stable cell line overexpressing NaCT or cell transfection with SLC13A2 or SLC13A3 can be found in the supporting information. HEK-293 cells stably transfected with the human sodium Citrate transporter SLC13A5 or transiently transfected with the human SLC13A2 or SLC13A3 transporter were removed from the flasks with dissociation buffer and re-suspended in an equal volume of growth media (DMEM, High Glucose supplemented with 10% heat inactivated fetal bovine serum and 500 μg/ml Geneticin). For the transient transfections, Geneticin was eliminated from the media. Cell suspensions were centrifuged at 1,000 rpm for approximately 5 minutes. Resulting cell pellets were re-suspended in growth media and placed in a 37 °C water bath for approximately 10 minutes prior to a final spin at 1,000 rpm. Following this spin the resulting cell pellets were re-suspended in assay buffer, 142 mM NaCl (or 142 mM choline chloride), 5 mM KCl, 1.2 mM MgSO4, 1.5 mM CaCl, 5 mM glucose and 25 mM HEPES pH 7.4. Cell suspensions were counted and the concentration adjusted as needed with assay buffer to 2e[6] viable cells /mL. 20 μL of cell suspension were added to 384-well cyotstar-T plates followed by the addition of 5 μL of 10× concentration of compound. Cells and compound were incubated at 37 °C for approximately 30 minutes prior to the addition of 25 μL of 300 μM citric acid (16 μM radiolabeled [^14C]-citric acid and 284 μM cold citric acid) to make a 150 μM final concentration of citric acid or 21 μM [^14C]-succinic acid. After substrate addition, the uptake of radioactivity was monitored on Perkin Elmer Microbeta plate reader. Data from reads between 45–90 minutes was used to assess the ability of test compounds to inhibit the uptake of citric or succinic acid. […]
(§8) were plated, and incubated for 48 hours. Following the incubation, NaDC1 and NaDC3 assays were executed identical to the procedure for NaCT. […]
(§9) The solution was heated to reflux until the total volume was reduced to ~25 mL. […]

NaDC3 (SLC13A3) = biological target: T2, NaDC3 (SLC13A3) (Homo sapiens, UniProt Q8WWT9); assay: Inhibition of citrate or succinate uptake in HEKNaDC3 cells; type: cell-based; conditions: compound 4: mean of 2 replicates
T2 construct: host or cells: HEK-293, transient (Fugene HD)
T2 sequence (Q8WWT9 1-602): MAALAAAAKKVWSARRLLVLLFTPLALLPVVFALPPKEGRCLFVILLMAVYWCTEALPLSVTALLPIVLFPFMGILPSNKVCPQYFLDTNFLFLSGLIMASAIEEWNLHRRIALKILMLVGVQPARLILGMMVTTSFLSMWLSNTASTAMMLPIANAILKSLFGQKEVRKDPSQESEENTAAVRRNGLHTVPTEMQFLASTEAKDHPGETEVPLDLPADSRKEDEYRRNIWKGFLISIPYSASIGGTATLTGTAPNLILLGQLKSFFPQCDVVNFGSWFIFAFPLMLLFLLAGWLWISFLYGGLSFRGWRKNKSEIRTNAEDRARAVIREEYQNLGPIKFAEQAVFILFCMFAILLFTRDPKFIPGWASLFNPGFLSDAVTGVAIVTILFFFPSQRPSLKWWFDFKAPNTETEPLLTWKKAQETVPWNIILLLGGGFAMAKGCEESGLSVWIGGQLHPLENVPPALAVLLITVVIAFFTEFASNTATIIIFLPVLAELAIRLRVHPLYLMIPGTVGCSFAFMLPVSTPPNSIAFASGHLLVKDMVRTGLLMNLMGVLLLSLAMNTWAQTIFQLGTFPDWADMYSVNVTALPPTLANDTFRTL
Excerpt: as §7, §8, §9

NaCT (SLC13A5) = NaCT (SLC13A5) (Homo sapiens, UniProt Q86YT5); assay: Inhibition of citrate uptake in HEKNaCT cells; type: cell-based; conditions: geometric mean of at least 3 replicates
NaCT (SLC13A5), sequence (Q86YT5 whole entry): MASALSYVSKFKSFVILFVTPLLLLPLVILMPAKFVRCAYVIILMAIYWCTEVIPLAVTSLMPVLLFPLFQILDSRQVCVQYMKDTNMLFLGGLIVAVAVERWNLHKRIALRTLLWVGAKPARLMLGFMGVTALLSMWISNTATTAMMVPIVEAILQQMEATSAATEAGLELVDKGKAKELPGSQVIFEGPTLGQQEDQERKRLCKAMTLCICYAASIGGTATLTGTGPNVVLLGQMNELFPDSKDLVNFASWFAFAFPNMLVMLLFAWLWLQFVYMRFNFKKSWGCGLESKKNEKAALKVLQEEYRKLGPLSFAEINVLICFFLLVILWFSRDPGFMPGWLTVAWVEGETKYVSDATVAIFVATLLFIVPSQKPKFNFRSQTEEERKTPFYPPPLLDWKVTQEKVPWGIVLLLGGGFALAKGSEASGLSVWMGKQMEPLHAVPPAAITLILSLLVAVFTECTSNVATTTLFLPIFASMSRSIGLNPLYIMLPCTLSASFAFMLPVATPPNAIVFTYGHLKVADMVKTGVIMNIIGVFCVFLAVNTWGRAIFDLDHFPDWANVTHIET
Method: HEK-293 cells stably transfected with the human sodium Citrate transporter SLC13A5 or transiently transfected with the human SLC13A2 or SLC13A3 transporter were removed from the flasks with dissociation buffer and re-suspended in an equal volume of growth media (DMEM, High Glucose supplemented with 10% heat inactivated fetal bovine serum and 500 μg/ml Geneticin). For the transient transfections, Geneticin was eliminated from the media. Cell suspensions were centrifuged at 1,000 rpm for approximately 5 minutes. Resulting cell pellets were re-suspended in growth media and placed in a 37 °C water bath for approximately 10 minutes prior to a final spin at 1,000 rpm. […] Cell suspensions were counted and the concentration adjusted as needed with assay buffer to 2e[6] viable cells /mL. 20 μL of cell suspension were added to 384-well cyotstar-T plates followed by the addition of 5 μL of 10× concentration of compound. […] After substrate addition, the uptake of radioactivity was monitored on Perkin Elmer Microbeta plate reader. Data from reads between 45–90 minutes was used to assess the ability of test compounds to inhibit the uptake of citric or succinic acid.

[4] = biological target: T3, NaCT in cryopreserved human hepatocytes (Homo sapiens, UniProt Q86YT5); assay: Inhibition of citrate uptake in cryopreserved human hepatocytes; type: cell-based; conditions: geometric mean of at least 3 replicates
T3 construct: the transporter was in its native environment, we used cryopreserved human hepatocytes; endogenous in cells; host or cells: cryopreserved human hepatocytes
T3 sequence (Q86YT5 whole entry): as above

[5] = Passive permeability, MDCK-LE cell monolayer; type: in vitro ADME; conditions: dog, MDCK; read-out: Papp (passive permeability)
Method: Passive permeability was assessed using MDCK-LE cell monolayer as described previously in Di et al., (2011)[44].

Stability in assay media = type: in vitro ADME; conditions: read-out: t1/2 in assay media
HEKNaCT cells [6] = assay: Stability in HEKNaCT cells; type: in vitro ADME, human; conditions: data not shown
[7] = Stability in human hepatocytes; type: in vitro ADME; conditions: metabolically competent human hepatocytes
parental HEK-293 cells = assay: Whole cell binding experiments with [3H]-2, parental HEK-293 cells; set-up: species or system human; conditions: 75 nM
Method: Parental HEK-293 cells or HEK-293 cells expressing SLC13A5 were incubated with [^3H]-2 at 75 nM. See supplemental methods for additional details. […]
were plated, and incubated for 48 hours. Following the incubation, NaDC1 and NaDC3 assays were executed identical to the procedure for NaCT.
Binding experiments with [3H]-2. Parental HEK-293 cells or cells overexpressing SLC13A5 were incubated in the media with 75 nM of [3H]-2. These cells were also incubated with either 0, […]
was monitored for 2-hours. The uptake of radioactivity was monitored on Perkin Elmer Microbeta plate reader. In experiments in which cold 2 was added to the media, after 2-hours, the cells were washed 3x with PBS, and then in fresh media 100 μM cold 2 was added for 2-hours and the disappearance of radioactivity was monitored using a Perkin Elmer Microbeta […]
Intra- and extracellular concentrations of compound in cellular assays. kpuu values were determined by measuring total cell and media concentrations corrected for their respective fraction unbound. Detailed methods to determine intra- and extracellular concentrations of […]
Crystallization and X-ray analysis of (S)-2-(4-(tert-butyl)phenethyl)-2-hydroxysuccinic […]
Crystallization conditions. Ethyl acetate (50 mL) was added to (S)-2-(4-(tert-butyl)phenethyl)- 2-hydroxysuccinic acid (3) ([…], 46.2 mmol). The suspension turned to a solution upon heating. […]

For `CC(C)(C)c1ccc(CCC(O)(CC(=O)O)C(=O)O)cc1` (stereo not drawn) [Compound 1], the “cellular toxicity (CellTiter-glo assessment)” value (HEK-293-derived cells) was “No cellular toxicity”.

In the case of `CC(C)(C)c1ccc(CC[C@](O)(CC(=O)O)C(=O)O)cc1` [Compound 3, (S)-2-(4-(tert-butyl)phenethyl)-2-hydroxysuccinic acid], the Kp uu at 1 h, 1 µM [1] is reported as 0.6 ± 0.2, the Kp uu at 1 h, 1 µM [2] is reported as 0.4 ± 0.1 and the “label incorporation in TAG” value (human hepatocytes) is reported as “not”. For the same molecule, the “effect on citrate induced increase in oxygen consumption rate (OCR)” value (HEKNaCT cells [3]) was “not” and the “effect on citrate suppressed extracellular acidification rate (ECAR)” value (HEKNaCT cells [3]; citrate) was “not”.

Molecule `O=C(O)C[C@](O)(CCc1ccc(I)cc1)C(=O)O` [Compound 4] has an IC50 (NaDC1 (SLC13A2)) of 5.5 µM and an IC50 (NaDC3 (SLC13A3)) of 3.2 µM.

For `CCOC(=O)[C@@](O)(CCc1ccc(C(C)(C)C)cc1)CC(=O)O` [Compound 5], the IC50 (NaCT (SLC13A5)) was > 25 µM, the IC50 [4] was 6.76 µM and the Papp [5] was 13 ×10⁻⁶ cm/s. The half-life (Stability in assay media) was > 120 min, the “stability in HEKNaCT cells” value (HEKNaCT cells [6]) was “stable” and the half-life [7] was 29 min.

For `[3H]C([3H])(c1ccc(C(C)(C)C)cc1)C([3H])([3H])[C@@](O)(CC(=O)O)C(=O)O` [[^3H]-2], the “interaction with parental HEK-293 cells” value (parental HEK-293 cells) was “no significant interaction”.
